Laboratory results taken from patent US20010006942A1, “Chemokine receptor peptide vaccines for treatment and prevention of diabetes” (priority 1998, published 2001).
Ends that are not written are not given here.

What was measured:
[1] = test system: CXCR3 cell line transfectant; assay: FACS analysis: blocking of anti-CXCR3 antibody binding to CXCR3 transfectant; type: cell-based, human
[2] = test system: anti-CXCR3 antibody; assay: ELISA binding of receptor-derived peptides to anti-CXCR3 antibody; set-up: species or system mouse; conditions: peptide coated on plate, antibody 0.5 μg/well, 2 hours
Description: The ability of these receptor-derived peptides to bind anti-CXCR3 antibody was evaluated using a standard ELISA format. The peptides were dissolved in 0.1 M bicarbonate buffer and coated on a 96 well ELISA plate overnight. The excess peptides were removed and nonspecific binding sites in the wells were blocked by 0.1 % bovine serum albumin. Anti-CXCR3 antibody (0.5 μg/well) was added to these wells and incubated for 2 hours. Excess antibody was removed by washing with PBS. HRP conjugated goat anti-mouse antibody was used as secondary antibody for detection. […] Further support for the conclusion that anti-CXCR3 antibody bound two of the seven receptor-derived peptides was provided by FACS analysis of the same interactions.

[3] = test system: EAE; assay: prevention of EAE in mice by peptide vaccination; conditions: SP4-1 with CFA s.c. at 21 and 14 days before induction of EAE with PLP 139-151, SJL mice
Description: SJL mice (6-8 weeks old) were obtained from Jackson Laboratories. They were kept in quarantine for two weeks. […] For the experiments, induction of the disease is considered Day 0.
The emulsion was taken in 1 ml syringe (needed 2 syringes) fitted with a 25 gauge needle. Each mouse was given 100 μl of the emulsin under each flank near the hind legs by subcutaneous injection (total volume per mouse=200 μl, total peptide per mouse=200 μg).
One ml of PBS and 1 ml of CFA were mixed and sonicated for 5 seconds and the emulsin is drawn into a 1 ml syringe fitted with a 25 gauge needle. Each mouse was given 100 μl of this emulsion under each flank near hind legs by subcutaneous injection (total volume of CFA per mouse=200 μl).
To an aqueous solution of peptide (4 mg per ml in PBS) equal volume of CFA was added and the mixture was sonicated for 5 seconds. The emulsion was drawn in a 1 ml syringe fitted with a 25 gauge needle and subcutaneously injected (200 μl total per mouse) in mice at the foot pad and back.

[4] = test system: human CXCR3 SP-4-1 peptide; assay: serum ELISA for antibody response to SP4-1 peptide in vaccinated mice; type: in vivo; conditions: serum of vaccinated SJL mice, bled week 0 and week 5, ELISA
Description: The mice were bled at week 0 and week 5 and serum was tested by ELISA for the presence of antibodies against the human CXCR3 SP-4-1 peptide. Briefly, the SP4-1 peptide dissolved in 0.1 M sodium bicarbonate buffer was plated on a 96-well ELISA plate overnight. The nonspecific binding sites on the plate were coated with 0.1% bovine serum albumin solution in PBS. The wells were washed and serum (diluted in PBS) was added to the wells and incubated at room temperature for 1.5 hours. The wells were then washed and HRP conjugated anti-mouse immunoglobulin antibody was used to detect the presence of anti-SP4-1 antibodies).

[5] = molecular target: T1, human CXCR3 (CXCR3-NSO transfectants) (Homo sapiens, UniProt P49682); assay: microphysiometer bioassay for CXCR3 activation (extracellular acidification rate); type: cell-based; conditions: 1, 5, 10 mglml ligand pumped for 10 min
T1 construct: expressed in transfected cells
T1 sequence (P49682 1-368): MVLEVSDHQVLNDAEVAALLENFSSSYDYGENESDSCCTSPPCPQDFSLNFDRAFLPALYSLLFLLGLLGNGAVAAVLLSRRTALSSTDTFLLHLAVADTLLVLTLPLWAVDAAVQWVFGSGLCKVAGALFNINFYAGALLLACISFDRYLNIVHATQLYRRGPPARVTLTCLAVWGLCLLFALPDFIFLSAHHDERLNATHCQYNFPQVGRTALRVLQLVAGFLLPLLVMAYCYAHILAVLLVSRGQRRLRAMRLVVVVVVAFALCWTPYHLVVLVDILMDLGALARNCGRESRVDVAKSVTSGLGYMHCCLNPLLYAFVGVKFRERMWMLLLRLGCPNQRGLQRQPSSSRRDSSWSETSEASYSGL
Description: (§1) 5X10^5 CXCR3-NSO transfectant cells and untransfected “BONZO-NSO” cells (negative control) were spotted in the microphysiometer chambers along with agarose and 1, 5, 10 […] anti-CXCR3 (FIG 1a) or IP-10 (FIG 1b) was pumped for 10 min. […] The arrow indicates the time that ligands were added to the cells.
A stable line transfectant of NSO-1 cells expressing the cDNA for human CXCR3 was prepared according to standard techniques. The surface expression of hu-CXCR3 on the transfectants compared to untransfected parent NSO-1 cells was confirmed by FACS staining using mouse anti-human CXCR3 monoclonal antibody (R&D systems).
(§2) To establish a bioassay for CXCR3 activation, the CXCR3 transfectant cells were cultured with either human IP-10, or the mouse anti-human CXCR3 antibody, and the physiological response of the cells was measured using a microphysiometer. This machine measures changes in the pH of the extracellular medium of the cell cultures which result from ligand receptor binding on the cell surface. These extracellular acidification rate measurements have previously been used as markers of antigen specific T cell activation and T cell epitope identification. The current assay is used to provide a biological read out for the identification of chemokine or chemokine receptor peptides involved in binding to IP- 10 or agonistic anti-CXCR3 antibody.

[6] = test system: untransfected NSO-1 cells; assay: microphysiometer acidification rate, untransfected negative control cells; type: cell-based; conditions: untransfected NSO-1 (BONZO-NSO) cells
Description: as §1, §2

Substance	inhibition of binding of anti-CXCR3 antibody to CXCR3 transfectants [1]	binding to anti-CXCR3 antibody [2]	mice showing no clinical symptoms of EAE [3]	antibody response against SP4-1 peptide [4]	acidification rate changes [5]	acidification rate changes [6]	acidification rate changes ([6]; listed as IP-10)
DILMDLGALARNCGRESRVDVAKS-NH2 [SP-4-1]	potently blocked binding	substantial binding	7 out of 8	show an antibody response against this peptide			
DAAVQWVFGSGLCKV-NH2 [SP-2-1]	failed to inhibit binding	nonbinding					
human IP-10: human chemokine IP-10, ligand of CXCR3					substantial acidification rate changes	no change in acidification rate	did not show any change in acidification rate changes
PPCPQDFSLNFDRAFLPA-NH2 [SP-1-3]	partial inhibition	substantial binding					
